Two compounds from article PMC13534789, “Molecular Glue Degraders Enhance CAPRIN1‐Dependent Lysosomal Degradation of APP and Reduce Amyloid β in Alzheimer's Disease” (Advanced Science, 2026) can be followed below.

One series has as its system MDR1 (P-gp). In words: MDR1-MDCKII permeability assay. Type of series: in vitro ADME. Particulars: dog, MDCK-MDR1, pH 7.4, MDR1-MDCKII. On the procedure: (§1) MDR1‐MDCKII assay was processed by Sai Life Sciences Pvt. Ltd. Briefly, MDR1‐MDCKII cells were seeded onto the polycarbonate membranes in the 24‐well insert system at 0.12 × 10^6 cells/well and cultured for 8 days until confluence before being used for the transport studies. Test compounds were diluted with the transport buffer (HPSS with 10 mM HEPES, pH 7.4) from a DMSO stock solution to a concentration of 2 µM (DMSO < 1%) and applied to the apical or basolateral side of the cell monolayer. The plate was incubated for 2.0 h in a CO2 incubator at 37±1°C, with 5% CO2 at saturated humidity without shaking. Permeability was measured in duplicate (n = 2) in both A→B and B→A directions. Loperamide (P‐gp efflux substrate) was tested at 2 µM bidirectionally, Verapamil was used as P‐gp inhibitor. While Atenolol (low permeability marker) and Propranolol (high permeability marker) were tested at 2.00 µM in the A to B direction in duplicate. Test and reference compounds were quantified by LC‐MS/MS analysis based on the peak area ratio of analyte/internal standard (IS). The efflux ratio of each compound was calculated. Permeability measurements were performed in duplicate (n = 2) in both directions, and the summarized permeability values and efflux ratios are presented in Figure 3A. The corresponding experimental data, including bidirectional Papp values, recovery, and variability (%CV), are provided in Table S3, thereby supporting the results shown in Figure 3A. After the transport assay, Lucifer yellow fluorescence rejection assay was performed to confirm the integrity of the cell monolayer.

The next series concerns P-gp (MDR1). Nature of the series: MDR1-MDCKII permeability assay. The note with it: dog, MDCK-MDR1, pH 7.4, MDR1-MDCKII, 2 µM, 2.0 h, n = 2; for Papp A→B at 2 h, 2 µM: read-out: Apical to basal (AP-BL) Papp; for Papp B→A at 2 h, 2 µM: read-out: Basal to apical (BL-AP) Papp. Type of series: in vitro ADME. On the procedure:
as §1

The next series deals with CAPRIN1–APP interaction (Homo sapiens, UniProt P05067+Q14444). Nature of the series: CAPRIN1–APP interaction in cells (co-IP, confocal colocalization). Type of series: cell-based. On the set-up: endogenous in cells; host or cells: AG27606-Ns, sAD2.3-Ns (iPSC-derived neurons) and their lysates. Particulars: 10 µM, 24 h; for APP–CAPRIN1 colocalization (confocal, Pearson's coefficient): AG27606-Ns and sAD2.3-Ns. As for the experimental part:
Cells were lysed in 1% Triton X‐100 buffer (50 mM Tris (pH 7.4), 150 mM NaCl, 10% glycerol, 1% Triton X‐100, 1 mM EDTA) or RIPA buffer (50 mM Tris (pH7.5), 150 mM NaCl, 0.5% NP40, 0.5% deoxycholate, 0.1% SDS) supplemented with 1 mM PMSF, protease and phosphatase inhibitors. For immunoprecipitation, cell lysates (0.5–1 mg) were incubated with the primary antibodies (1–2 µg) overnight at 4°C and mixed with protein G beads for 4 h. The immunoprecipitants were washed with 1% Triton X‐100 buffer 3 times and eluted with Laemmli buffer, followed by western blot. Immunoprecipitations were performed using the following approaches: (i) Tagged CAPRIN1 immunoprecipitation (HEK293 overexpression assays): HEK293 cells were co‐transfected with APP constructs (including APP695‐HiBiT) and Flag‐ or Myc‐tagged CAPRIN1. CAPRIN1 was immunoprecipitated using anti‐Flag or anti‐Myc antibodies, and co‐precipitated APP was detected by immunoblot; (ii) Endogenous APP immunoprecipitation: APP was immunoprecipitated using anti‐APP antibody (Sigma, A8717), followed by immunoblotting for CAPRIN1. Where indicated, reciprocal immunoprecipitation using anti‐CAPRIN1 antibody was performed, followed by APP detection; (iii) CAPRIN1 immunoprecipitation: In selected experiments, CAPRIN1 was immunoprecipitated using anti‐CAPRIN1 antibody (Proteintech, 15112‐1‐AP), and co‐precipitated proteins including APP and LAMP1 were analyzed by immunoblot; (iv) HiBiT‐based pull‐down assays: In HEK293 cells expressing APP695‐HiBiT, APP constructs were immunoprecipitated using anti‐HiBiT antibody (Promega, N7200), followed by detection of CAPRIN1. Western blot bands were quantified using Fiji (ImageJ) with background subtraction and normalized to loading controls.
Cells were grown on glass cover slips coated with 1% Matrigel and treated with drugs. Cells were washed, fixed, permeabilized, blocked, and incubated in primary antibodies diluted in blocking solution (1% v/v BSA solution/5% Goat serum in PBS containing 0.1% Triton X‐100) overnight at 4°C. The cells were washed three times with PBS and incubated in secondary antibodies in a blocking solution for 1 h at room temperature, then washed with PBS, followed by HOECHST staining (Invitrogen) for 5 min, and washed with PBS. The glass coverslips were put on a slide‐in mounting medium ([…]), and the edges were sealed with coverslip sealant (BIOTIUM). […]
ImageJ (Fiji) program (NIH, Bethesda, MD, USA) was used o analyze images. Pearson's correlation coefficients were calculated with the JACoP plugin from two channels (BIOP). […] Colocalized areas were calculated in the image calculator tool ([…] function) to get an overlayed area for the segmented signals, followed by using the analyze particle tool in Fiji to determine by > 1‐pixel overlapping of the segmented signal. […]

In a further series the test system is SUMO1. Nature of the series: SUMO1 protein levels (western / dot blot). Type of series: cell-based, human.
Where [1] appears, read: read-out: % Recovery (Overall) - Apical to basal.
The mark [2] stands for this setting: read-out: % Recovery (Overall) - Basal to Apical.

Like-named read-outs stand apart in the source and are kept apart here.

Chain of CAPRIN1–APP interaction (Q14444 2-709 limits assumed): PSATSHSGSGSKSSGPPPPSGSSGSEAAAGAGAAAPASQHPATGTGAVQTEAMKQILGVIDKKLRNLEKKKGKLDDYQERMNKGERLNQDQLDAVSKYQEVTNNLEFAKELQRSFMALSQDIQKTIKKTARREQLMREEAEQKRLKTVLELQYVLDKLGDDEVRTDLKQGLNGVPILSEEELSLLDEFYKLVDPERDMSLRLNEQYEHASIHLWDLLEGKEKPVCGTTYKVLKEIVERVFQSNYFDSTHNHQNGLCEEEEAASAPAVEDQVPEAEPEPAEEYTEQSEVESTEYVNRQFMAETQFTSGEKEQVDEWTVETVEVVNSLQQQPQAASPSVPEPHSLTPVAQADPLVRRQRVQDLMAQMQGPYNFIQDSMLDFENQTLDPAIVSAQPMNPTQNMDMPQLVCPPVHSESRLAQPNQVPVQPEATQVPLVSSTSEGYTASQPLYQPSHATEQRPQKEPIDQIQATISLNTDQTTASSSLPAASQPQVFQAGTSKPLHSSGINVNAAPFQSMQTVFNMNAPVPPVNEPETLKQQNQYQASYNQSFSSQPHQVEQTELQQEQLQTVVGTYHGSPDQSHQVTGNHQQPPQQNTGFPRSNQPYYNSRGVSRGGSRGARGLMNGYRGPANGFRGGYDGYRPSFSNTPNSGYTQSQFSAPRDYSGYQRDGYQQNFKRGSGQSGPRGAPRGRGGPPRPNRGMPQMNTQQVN
Chain of CAPRIN1–APP interaction (P05067 18-695 isoform P05067-4 limits assumed): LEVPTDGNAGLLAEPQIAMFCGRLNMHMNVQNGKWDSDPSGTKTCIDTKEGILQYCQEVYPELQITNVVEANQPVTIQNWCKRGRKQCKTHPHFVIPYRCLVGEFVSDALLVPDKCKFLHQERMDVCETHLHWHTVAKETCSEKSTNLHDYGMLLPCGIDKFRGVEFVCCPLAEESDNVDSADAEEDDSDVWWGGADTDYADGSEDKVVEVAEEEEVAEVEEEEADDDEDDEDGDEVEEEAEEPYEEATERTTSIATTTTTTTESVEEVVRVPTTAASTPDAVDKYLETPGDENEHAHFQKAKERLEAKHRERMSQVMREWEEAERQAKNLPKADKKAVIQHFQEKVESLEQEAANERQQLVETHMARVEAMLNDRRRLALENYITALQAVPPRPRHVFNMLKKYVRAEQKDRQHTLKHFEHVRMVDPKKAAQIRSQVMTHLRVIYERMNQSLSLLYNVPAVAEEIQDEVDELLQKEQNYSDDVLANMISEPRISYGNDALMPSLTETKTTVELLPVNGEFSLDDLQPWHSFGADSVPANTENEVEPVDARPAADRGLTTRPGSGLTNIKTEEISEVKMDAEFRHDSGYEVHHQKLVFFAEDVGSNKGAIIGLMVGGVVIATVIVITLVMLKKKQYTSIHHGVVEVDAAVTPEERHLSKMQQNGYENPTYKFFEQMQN

Broadly, the efflux ratio is the permeability from basolateral to apical divided by that in the opposite direction, in the common usage. For `N#Cc1cccc(NC(=O)Nc2nc3ccc(C(=O)N4CCOCC4)cc3s2)c1` [compound 0043], the recovery at 2 h, 2 µM in the series on MDR1 (P-gp) (setting [1]) was determined as 121%. For the same compound, the recovery at 2 h, 2 µM in the series on MDR1 (P-gp) (setting [2]) worked out at 106%. In addition, in the series with P-gp (MDR1), the efflux ratio at 2 h, 2 µM is 114; the Papp A→B at 2 h, 2 µM is 0.4 ×10⁻⁶ cm/s; the Papp B→A at 2 h, 2 µM came out at 42.6 ×10⁻⁶ cm/s. The “APP–CAPRIN1 colocalization (confocal, Pearson's coefficient)” value on CAPRIN1–APP interaction is “increased co‐localization of APP and CAPRIN1”. Besides, on CAPRIN1–APP interaction (AG27606-Ns), the “CAPRIN1–APP interaction (APP IP, CAPRIN1 immunoblot)” value is listed as “enhances CAPRIN1‐APP interaction”. Besides, at CAPRIN1–APP interaction (HEK-APP695 cells), the “CAPRIN1–APP interaction (co-IP)” value is “enhanced the interaction between CAPRIN1 and APP”. In addition, the “SUMO1 protein levels in cancer cells” value in the series with SUMO1 (HCT116 and LN229 cells) was “no effects”.
Take `COc1cccc(NC(=O)Nc2nc3ccc(C(=O)N4CCOCC4)cc3s2)c1` [compound 0152]: in the series on MDR1 (P-gp) (setting [1]), the recovery at 2 h, 2 µM is 121%. For the same compound, the recovery at 2 h, 2 µM in the series with MDR1 (P-gp) (setting [2]) amounted to 141%. For the same compound, in the series on P-gp (MDR1), the efflux ratio at 2 h, 2 µM was 78; the Papp A→B at 2 h, 2 µM came to 0.5 ×10⁻⁶ cm/s; the Papp B→A at 2 h, 2 µM stood at 37.4 ×10⁻⁶ cm/s. For the same compound, the “APP–CAPRIN1 colocalization (confocal, Pearson's coefficient)” value on CAPRIN1–APP interaction is “increased colocalization of APP and CAPRIN1”. The “SUMO1 levels in neuronal cells” value with SUMO1 (AG27606-derived neurons, 10 µM, 3 days) was “no appreciable change”.
